Molecules are shown by their SMILES. Converted amounts (≈) assume the structure as drawn. “And” between values parts separate entries of the source, which are not always exact repeats. Equal entries are not always repeated. Where two headings read alike, the source gives them in different places.

Among the data in publication PMC7775894 (Bioorganic chemistry, 2020) are MIC values, retold here.

The subject of one test is M. tb H37Rv strain. As to conditions: cited from earlier work.
The subject of another test is M. tb V2475/MDR. The test can be described thus: microbe, parasite or virus in culture. The format is cell-based. The settings on record: Mycobacterium tuberculosis, read-out: M. tb MIC V2475/MDR.
In a further test the test system is M. tb KZN494/MDR. The experiment in a line: microbe, parasite or virus in culture. The format is cell-based. As to conditions: Mycobacterium tuberculosis, read-out: M. tb MIC KZN494/MDR.
In another test the test system is M. tb R506/XDR. The experiment in a line: microbe, parasite or virus in culture. The format is cell-based. As to conditions: Mycobacterium tuberculosis, read-out: M. tb MIC R506/XDR.
The test system of the next test is M. tb TF274/XDR. The test can be described thus: microbe, parasite or virus in culture. The format is cell-based. As to conditions: Mycobacterium tuberculosis, read-out: M. tb MIC TF274/XDR.

`NNC(=O)c1ccncc1` [INH, isoniazid]: the MIC with M. tb H37Rv strain (ref 22) was 0.29 μM and 0.29 [22] μM.
Regarding `COc1ccc2[nH]c(C(=O)NC34CC5CC(CC(C5)C3)C4)cc2c1` [8d, N-(1-Adamantyl)-5-methoxy-1H-indole-2-carboxamide], the MIC in the test on M. tb V2475/MDR was 0.39 to 0.77 µM (≈ 0.127 to 0.25 µg/mL); in the test with M. tb KZN494/MDR it was 0.39 µM (≈ 0.127 µg/mL); in the test on M. tb R506/XDR, 0.39 µM (≈ 0.127 µg/mL); with M. tb TF274/XDR it was 0.39 µM (≈ 0.127 µg/mL).
As to `CC[C@@H](CO)NCCN[C@@H](CC)CO` [EMB, ethambutol], the MIC in the test with M. tb H37Rv strain (listed as ethambutol) is 4.89 µM (≈ 0.999 µg/mL); with M. tb H37Rv strain (ref 22) it was 4.89 [22] μM.
Regarding `O=C(Nc1ccc(F)c(F)c1F)NC1C2CC3CC(C2)CC1C3` (centres unmarked) [compound 4], the MIC in the test with M. tb H37Rv strain (ref 22) is 0.096 to 0.19 µM.
Turning to `O=C(Nc1cc(Cl)cc(Cl)c1)NC12CC3CC(CC(C3)C1)C2` [10a, 1-(1-Adamantyl)-3-(3,5-dichlorophenyl)urea], the MIC in the test on M. tb V2475/MDR is 1.47 to 2.95 µM (≈ 0.499 to 1 µg/mL); in the test with M. tb KZN494/MDR, 1.47 µM (≈ 0.499 µg/mL); in the test on M. tb R506/XDR it was 0.74 µM (≈ 0.251 µg/mL); in the test with M. tb TF274/XDR it was 0.74 µM (≈ 0.251 µg/mL).
Take `O=C(O)c1cn(C2CC2)c2cc(N3CCNCC3)c(F)cc2c1=O` [CPF, Ciprofloxacin, reference compound]: the MIC in the test on M. tb R506/XDR and in the test with M. tb TF274/XDR was 6.04 µM (≈ 2 µg/mL) each time.
In the case of `O=C(NC12CC3CC(CC(O)(C3)C1)C2)c1cc2c(Cl)cc(Cl)cc2[nH]1` [8j, 4,6-dichloro-N-(3-hydroxyadamantan-1-yl)-1H-indole-2-carboxamide], the MIC in the test on M. tb V2475/MDR was determined as 2.64 µM (≈ 1 µg/mL); in the test with M. tb KZN494/MDR, 1.32 µM (≈ 0.501 µg/mL); with M. tb R506/XDR, 0.66 µM (≈ 0.25 µg/mL); in the test with M. tb TF274/XDR, 0.66 µM (≈ 0.25 µg/mL).
In the case of `Cc1ccc2[nH]c(C(=O)NC34CC5CC(CC(C5)C3)C4)cc2c1` [8f, N-(1-Adamantyl)-5-methyl-1H-indole-2-carboxamide], the MIC is 0.2 µM (≈ 0.0617 µg/mL) with M. tb V2475/MDR, 0.2 µM (≈ 0.0617 µg/mL) in the test on M. tb KZN494/MDR, 0.1 to 0.2 µM (≈ 0.0308 to 0.0617 µg/mL) with M. tb R506/XDR and 0.1 to 0.2 µM (≈ 0.0308 to 0.0617 µg/mL) with M. tb TF274/XDR.
With `O=C(NC12CC3CC(CC(O)(C3)C1)C2)c1cc2c(F)cc(F)cc2[nH]1` [8l, 4,6-difluoro-N-(3-hydroxyadamantan-1-yl)-1H-indole-2-carboxamide], the MIC in the test with M. tb V2475/MDR amounted to 5.77 µM (≈ 2 µg/mL); with M. tb KZN494/MDR it was 2.89 µM (≈ 1 µg/mL); in the test with M. tb R506/XDR, 2.89 µM (≈ 1 µg/mL); in the test on M. tb TF274/XDR, 1.44 µM (≈ 0.499 µg/mL).
As for `O=C(NC12CC3CC(CC(O)(C3)C1)C2)c1cc2ccc(Br)cc2[nH]1` [8i, 6-bromo-N-(3-hydroxyadamantan-1-yl)-1H-indole-2-carboxamide], the MIC with M. tb V2475/MDR was 5.14 µM (≈ 2 µg/mL); with M. tb KZN494/MDR, 2.57 to 5.14 µM (≈ 1 to 2 µg/mL); in the test on M. tb R506/XDR, 2.57 µM (≈ 1 µg/mL); with M. tb TF274/XDR, 2.57 µM (≈ 1 µg/mL).
Regarding `COc1cccc2[nH]c(C(=O)NC34CC5CC(CC(C5)C3)C4)cc12` [8b, N-(1-Adamantyl)-4-methoxy-1H-indole-2-carboxamide], the MIC in the test on M. tb V2475/MDR was 0.096 µM (≈ 0.0311 µg/mL); with M. tb KZN494/MDR, 0.048 µM (≈ 0.0156 µg/mL); with M. tb R506/XDR, 0.024 to 0.048 µM (≈ 0.00779 to 0.0156 µg/mL); with M. tb TF274/XDR it was 0.024 to 0.048 µM (≈ 0.00779 to 0.0156 µg/mL).
For the compound `O=C(NC12CC3CC(CC(C3)C1)C2)c1cc2c(F)cc(F)cc2[nH]1` [8k, N-(1-Adamantyl)-4,6-difluoro-1H-indole-2-carboxamide], the MIC is 0.024 µM (≈ 0.00793 µg/mL) in the test with M. tb V2475/MDR, 0.024 µM (≈ 0.00793 µg/mL) in the test on M. tb KZN494/MDR, 0.012 µM (≈ 0.00396 µg/mL) in the test on M. tb R506/XDR and 0.012 µM (≈ 0.00396 µg/mL) with M. tb TF274/XDR.
